Results: article PMC3525952 (Planta medica, 2008)
In brackets after ≈: the same amount, converted by molar mass. Where two headings read alike, the source gives them in different places.

What was measured:
CB1 receptor = CB1 receptor (Homo sapiens, UniProt P21554); assay: Radioligand
CB2 receptor = CB2 receptor (Homo sapiens, UniProt P34972); assay: Radioligand
AChE EC 3.1.1.7 = AChE EC 3.1.1.7 (Homo sapiens, UniProt P22303); assay: Spectrophotometric AChE inhibition assay; type: biochemical
rhinovirus 2 (HRV-2) = assay: Cytopathic effect; type: cell-based, human rhinovirus; conditions: for IC50: read-out: HRV (experimental result, activity class); for antiviral activity against HRV-2 (in words): HeLa cells, non-cytotoxic concentrations
[1] = Cytotoxicity on HeLa cell monolayers; type: cell-based; conditions: human, confluent HeLa cell monolayers
HeLa cell monolayers = assay: Cytotoxicity on HeLa cell monolayers; type: cell-based; conditions: HeLa cells; for CC50: 72 h incubation, two independent tests
[2] = hCB2 Ki ± SD, displacement of [3H]CP-55,940, Cheng-Prusoff
[3] = read-out: hCB2 Ki ± SD, displacement of [3H]CP-55,940, Cheng-Prusoff
[4] = AChE IC50 ± SD, in vitro, modified Ellman's method, 96-well microplate, n = 4
[5] = read-out: AChE (experimental result, activity class), Table 5 overview
[6] = read-out: CB2 (experimental result, activity class), Table 5 overview
[7] = AChE (experimental result, activity class), Table 5 overview
[8] = CB2 (experimental result, activity class), Table 5 overview

CB2 receptor, sequence (P34972 whole entry): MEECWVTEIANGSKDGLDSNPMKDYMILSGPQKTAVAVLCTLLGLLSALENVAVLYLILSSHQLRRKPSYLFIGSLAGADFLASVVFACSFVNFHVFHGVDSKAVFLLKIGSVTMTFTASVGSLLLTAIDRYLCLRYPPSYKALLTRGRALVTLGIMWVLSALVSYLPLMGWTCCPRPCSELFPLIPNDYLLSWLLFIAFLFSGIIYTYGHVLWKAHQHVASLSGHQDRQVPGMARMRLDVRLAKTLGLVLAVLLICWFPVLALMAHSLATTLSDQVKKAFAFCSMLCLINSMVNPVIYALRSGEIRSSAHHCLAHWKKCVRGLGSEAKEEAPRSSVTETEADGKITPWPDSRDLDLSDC
AChE EC 3.1.1.7, sequence (P22303 32-614): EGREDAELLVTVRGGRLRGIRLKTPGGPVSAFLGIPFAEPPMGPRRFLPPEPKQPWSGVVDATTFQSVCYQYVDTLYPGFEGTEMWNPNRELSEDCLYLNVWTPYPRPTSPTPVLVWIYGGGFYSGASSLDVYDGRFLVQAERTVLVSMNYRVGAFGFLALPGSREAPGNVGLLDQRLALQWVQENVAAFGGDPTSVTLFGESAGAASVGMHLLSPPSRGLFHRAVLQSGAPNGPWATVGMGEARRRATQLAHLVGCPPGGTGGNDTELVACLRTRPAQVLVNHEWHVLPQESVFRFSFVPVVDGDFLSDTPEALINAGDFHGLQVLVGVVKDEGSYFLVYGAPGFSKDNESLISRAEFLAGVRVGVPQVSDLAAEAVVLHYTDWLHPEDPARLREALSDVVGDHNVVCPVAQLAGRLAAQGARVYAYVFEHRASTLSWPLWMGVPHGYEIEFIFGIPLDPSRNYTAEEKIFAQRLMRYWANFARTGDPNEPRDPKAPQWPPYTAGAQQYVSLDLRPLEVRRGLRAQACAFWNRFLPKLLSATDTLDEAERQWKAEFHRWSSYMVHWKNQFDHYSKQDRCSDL
CB1 receptor, sequence (P21554 whole entry): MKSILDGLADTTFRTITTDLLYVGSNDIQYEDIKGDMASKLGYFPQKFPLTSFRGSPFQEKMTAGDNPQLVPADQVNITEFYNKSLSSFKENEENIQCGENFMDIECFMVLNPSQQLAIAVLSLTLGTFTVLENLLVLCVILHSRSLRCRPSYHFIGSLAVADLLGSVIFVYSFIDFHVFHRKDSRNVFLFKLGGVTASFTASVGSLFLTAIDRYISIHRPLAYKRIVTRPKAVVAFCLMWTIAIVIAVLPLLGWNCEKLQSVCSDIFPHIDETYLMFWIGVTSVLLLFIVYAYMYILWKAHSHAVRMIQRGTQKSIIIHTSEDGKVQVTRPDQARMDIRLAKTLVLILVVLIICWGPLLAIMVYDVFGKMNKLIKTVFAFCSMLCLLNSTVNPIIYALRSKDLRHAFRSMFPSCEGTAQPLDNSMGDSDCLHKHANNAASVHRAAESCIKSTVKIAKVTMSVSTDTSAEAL

Compound: CCCCCc1cc(O)c2c(c1)OC(C)(C)c1ccc(C)cc1-2 [Cannabinol, reference compound]
- Ki (CB1 receptor): 0.42 ± 0.13 µM
- Ki (CB2 receptor; [2]): 0.12 ± 0.01 µM

Compound: isoplatydesmin [Compound 9]
- AChE inhibiting activity (in words) (AChE EC 3.1.1.7): Modest effects
- Ki (CB2 receptor; [3]): > 100 µM

Compound: COC(=O)CCc1cc2ccoc2c(OC)c1O [Compound 16, Methyl 3-(6-hydroxy-7-methoxybenzofuran-5-yl)propanoate]
- IC50 (rhinovirus 2 (HRV-2); Enterovirus, HRV2, HeLa): 20 to 100 µM
- antiviral activity against HRV-2 (in words) (rhinovirus 2 (HRV-2)): Weak, but significant and dose-dependent antiviral activities
- CC50 at 72 h [1]: > 50 µg/mL
- IC50 (AChE EC 3.1.1.7; [4]): > 500 µM
- IC50 (AChE EC 3.1.1.7; [5]): > 500 µM

Compound: COc1cc2cc(Oc3ccc4ccc(=O)oc4c3)c(=O)oc2cc1OC [Compound 2, daphnoretin methyl ether]
- antiviral activity against HRV-2 (in words) (rhinovirus 2 (HRV-2)): Weak, but significant and dose-dependent antiviral activities
- IC50 (rhinovirus 2 (HRV-2); Table 5 overview): 20 to 100 µM
- CC50 (HeLa cell monolayers): > 50 µg/mL
- IC50 (AChE EC 3.1.1.7; [5]): > 500 µM

Compound: COc1c(C[C@@H](O)C(C)(C)O)c(=O)n(C)c2ccccc12 [Compound 10, (−)-edulinine]
- IC50 (AChE EC 3.1.1.7; [5]): > 500 µM
- Ki (CB2 receptor; [6]): > 100 µM
- Ki (CB2 receptor; [3]): > 100 µM

Compound: COc1cc2c(c(O)c1OC)c(=O)c1ccccc1n2C [Compound 1, arborinine]
- IC50 (rhinovirus 2 (HRV-2); Enterovirus, HRV2, HeLa): < 10 µM
- antiviral activity against HRV-2 (in words) (rhinovirus 2 (HRV-2)): most active antiviral constituents
- CC50 at 72 h [1]: > 50 µg/mL
- AChE inhibiting activity (in words) (AChE EC 3.1.1.7): strongest AChE inhibiting activity
- IC50 (AChE EC 3.1.1.7; [7]): < 50 µM
- IC50 (AChE EC 3.1.1.7; [4]): 34.7 ± 7.1 µM
- Ki (CB1 receptor): > 100 µM
- Ki (CB2 receptor; [8]): > 100 µM
- Ki (CB2 receptor; [2]): > 100 µM

Compound: COc1c2occc2cc2ccc(=O)oc12 [Compound 7, 8-methoxy psoralene]
- IC50 (AChE EC 3.1.1.7; [7]): > 500 µM
- IC50 (AChE EC 3.1.1.7; [4]): > 500 µM

Compound: Cc1cc(CCCOc2c(C)cc(-c3noc(C(F)(F)F)n3)cc2C)on1 [Pleconaril, reference compound]
- CC50 at 72 h [1]: 12.6 µg/mL (≈ 33 µM)

Compound: COC(=O)CC(O)c1cc(OC)c(O)c(OC)c1 (centres unmarked) [Compound 14, Methyl 3-hydroxy-3-(4-hydroxy-3,5-dimethoxyphenyl)propanoate]
- IC50 (rhinovirus 2 (HRV-2); Enterovirus, HRV2, HeLa): > 100 µM
- CC50 at 72 h [1]: > 50 µg/mL
- IC50 (AChE EC 3.1.1.7; [4]): > 500 µM
- IC50 (AChE EC 3.1.1.7; [5]): > 500 µM

Compound: COc1cc2ccc(=O)oc2c(OC)c1OC [Compound 13, 6,7,8-trimethoxycoumarin]
- IC50 (rhinovirus 2 (HRV-2); Enterovirus, HRV2, HeLa): 10 to 20 µM
- antiviral activity against HRV-2 (in words) (rhinovirus 2 (HRV-2)): most active antiviral constituents
- CC50 at 72 h [1]: > 50 µg/mL
- AChE inhibiting activity (in words) (AChE EC 3.1.1.7): Modest effects
- IC50 (AChE EC 3.1.1.7; [7]): 200 to 500 µM
- IC50 (AChE EC 3.1.1.7; [4]): 396 ± 68.5 µM

Compound: O=c1cc(-c2ccc3c(c2)OCO3)[nH]c2ccccc12 [Compound 11, norgraveoline]
- IC50 (rhinovirus 2 (HRV-2); Table 5 overview): > 100 µM
- CC50 (HeLa cell monolayers): 32.2 µg/mL (≈ 121 µM)
- AChE inhibiting activity (in words) (AChE EC 3.1.1.7): Modest effects
- IC50 (AChE EC 3.1.1.7; [5]): 50 to 200 µM

Compound: Cn1c2c(c(=O)c3ccccc31)CC(O)C(C)(C)O2 (centres unmarked) [Compound 8, S-ribalinine]
- antiviral activity against HRV-2 (in words) (rhinovirus 2 (HRV-2)): Weak, but significant and dose-dependent antiviral activities
- IC50 (rhinovirus 2 (HRV-2); Table 5 overview): 20 to 100 µM
- CC50 (HeLa cell monolayers): > 50 µg/mL
- IC50 (AChE EC 3.1.1.7; [5]): > 500 µM
- Ki (CB2 receptor; [6]): > 100 µM
- Ki (CB2 receptor; [3]): > 100 µM

Compound: COc1c2ccoc2cc2oc(=O)ccc12 [Compound 6, bergapten]
- IC50 (AChE EC 3.1.1.7; [7]): > 500 µM
- IC50 (AChE EC 3.1.1.7; [4]): > 500 µM

Compound: C=CC(C)(C)c1cc2cc3c(cc2oc1=O)OC(C(C)(C)OC(C)=O)C3 (centres unmarked) [Compound 3, rutamarin]
- HRV (experimental result, activity class) (rhinovirus 2 (HRV-2); Table 5 overview): cytotoxic
- cytotoxicity (in words) (HeLa cell monolayers): pronounced cytotoxicity
- CC50 at 72 h [1]: 0.9 µg/mL (≈ 2.53 µM)
- IC50 (AChE EC 3.1.1.7; [7]): > 500 µM
- IC50 (AChE EC 3.1.1.7; [4]): > 500 µM
- Ki (CB1 receptor): > 100 µM
- Ki (CB2 receptor; [8]): < 10 µM
- Ki (CB2 receptor; CB2 Ki, displacement of [3H]CP-55,940): 7.41 µM
- Ki (CB2 receptor; [2]): 7.4 ± 0.6 µM
- binding affinity to the CB receptors (in words) (CB2 receptor; radioligand displacement assay): selective affinity to the CB2 receptor

Compound: CC(C)=CCOc1c2ccoc2cc2oc(=O)ccc12 [Compound 4, isoimperatorine]
- IC50 (AChE EC 3.1.1.7; [7]): > 500 µM
- IC50 (AChE EC 3.1.1.7; [4]): > 500 µM

Compound: COC(=O)C1OC1c1cc(OC)c(O)c(OC)c1 (centres unmarked) [Compound 15, Methyl 3-(4-hydroxy-3,5-dimethoxyphenyl)oxirane-2-carboxylate]
- CC50 at 72 h [1]: > 50 µg/mL
- IC50 (AChE EC 3.1.1.7; [4]): > 500 µM

Compound: O=c1ccc2cc3ccoc3cc2o1 [Compound 5, psoralen]
- IC50 (AChE EC 3.1.1.7; [7]): > 500 µM
- IC50 (AChE EC 3.1.1.7; [4]): > 500 µM

Compound: COc1ccc2ccc(=O)oc2c1 [Compound 12, 7-methoxycoumarin]
- IC50 (AChE EC 3.1.1.7; [7]): > 500 µM
- IC50 (AChE EC 3.1.1.7; [4]): > 500 µM
